Where “and” joins values, the source holds several entries; their conditions need not be identical. Equal values may be shown once. Read-outs that look alike come from different tables or passages of the source.
Legend:
Assay type in all cases: physicochemical
[1] = ROTAP sieve particle size distribution (% retained); conditions: for Particle Size Distribution (% Retained) 12: 12 mesh screen; for Particle Size Distribution (% Retained) 20: 20 mesh screen; for Particle Size Distribution (% Retained) 40: 40 mesh screen; for Particle Size Distribution (% Retained) 60: 60 mesh screen; for Particle Size Distribution (% Retained) 80: 80 mesh screen; for Particle Size Distribution (% Retained) 100: 100 mesh screen; for Particle Size Distribution (% Retained) 200: 200 mesh screen; for Particle Size Distribution (% Retained) Pan: receiving pan
Procedure: (§1) All particle size (PS) analyses were conducted using a ROTAP Particle Size Analyzer and a MALVERN MASTERSIZER 2000, except as otherwise indicated. All particle size data were measured in microns and analyzed via the MALVERN MASTERSIZER 2000.
Particle Size: During the granulation process, an approximately 300 g sample is taken from material of the finished product drum starting with the first drum and every sixth drum thereafter, including the last drum (i.e. drum #1, 7, 13, 19 etc.). […] Each fraction was weighed and percent retained was calculated.

[2] = Bulk density
Procedure: (§2) Tapped density of the granulates of the present invention is typically at least about 0.6 g/mL, at least about 0.75 g/mL, at least about 0.80 g/mL, at least about 0.85 g/mL, or at least about 0.90 g/mL. Overall, the tapped density of the granulates of the present invention generally ranges from about 0.6 g/mL to about 1.0 g/mL, from about 0.7 g/mL to about 0.95 g/mL, or from about 0.8 g/mL to about 0.9 g/mL (e.g., about 0.85 g/mL). Bulk and tapped density as reported herein are determined by USP <616>, but it should be understood that other methods known in the art may be also be utilized to determine the tapped densities of compositions of the present invention.
(§3) Tare a 250 mL graduated glass cylinder. Fill with 100 grams of sample. Reweigh to determine weight. Record Initial Volume. The bulk density is the weight in grams divided by the volume (mL). Tap 1000 times by the automated tapping device. Read final volume. The tapped density is the weight in grams divided by the tapped volume (mL).

[3] = MALVERN MASTERSIZER 2000 particle size (d10, d50, d90); conditions: for d50: after U5 COMIL, 0.032″ round hole screen
Procedure: as §1

[4] = Tapped density
Procedure: as §2, §3

[5] = Moisture, loss on drying (LOD), halogen moisture balance; conditions: final / as dried material
Excerpt: Unless otherwise indicated, the following equipment was used in Examples 1a and 1b: R&D TURBULIZER High Shear Granulator, Model TCB; Large ACCURATE Powder Feeder; AEROMATIC Fluid Bed Dryer, Model S-2; ADMIX High Shear Mixer; SWECO Vibratory Sieve, 18″; STURTEVANT MICRONIZER Jet Mill, Model 45DM; Halogen Moisture Balance (to determine moisture levels); MALVERN MASTERSIZER 2000 (particle size analyzer); ROTAP particle size analyzer; and a Tapped Density Tester.
A sample of lactitol monohydrate (DANISCO) was evaluated for particle size moisture (loss on drying (LOD)), bulk density, and tapped density. […] A photo micrograph of the material was also generated (FIG. 2).
At approximately 125 g/min, the expected moisture level would be approximately 3.4%. However, at this initial binder flow rate, the granulation exiting the mixer felt too dry and was not as granular as desired. […] The final setting was 37 Hz or approximately 140 g/min. At this binder flow rate the expected granulation moisture level would be approximately 3.8%. No additional adjustments were made to the operating conditions over the remainder of the run. The final wet granulation moisture was approximately 2%. In order to improve the accuracy of the LOD moisture results the moisture balance test conditions were altered.
The expected moisture level at this setting would be approximately 4%. […]

[6] = HANSON FLODEX powder flowability (viscosity)
Excerpt: Samples were also subjected to flowability testing using a HANSON FLODEX Powder Flowability tester. The basis for the method is the powders ability to fall freely through a hole in a plate. The diameter of the smallest hole through which the powder passes is considered the flowability index. The flowability index (radius of hole size in cm) along with the bulk density of the material tested are then used to determine the viscosity (internal friction coefficient) of the powder. Lower powder viscosity indicates better flowability.
Samples of the finished lactitol granulations produced during execution of the commercial optimization protocol were also evaluated for flow using the HANSON Intrinsic Flowability Test. During the test, the smallest hole (in millimeters) that the product will flow through is determined in the FLODEX apparatus. Using this information and the bulk density of each powder (as determined in a 250 mL graduated cylinder) the coefficient of friction or viscosity (K) was calculated. The viscosity K (in poises) is equal to 490 (½ the acceleration of gravity) times the radius of the hole in centimeters times the bulk density of the sample. The result K is then multiplied by 100 to express the viscosity in centipoises.

[7] = Moisture content by Karl Fischer (KF)
Procedure: As noted, lactitol exists in the monohydrate, dihydrate, trihydrate, and hexahydrate forms. Lactitol monohydrate is the preferred form of lactitol for use. Lactitol monohydrate is defined by the EU-NP and USP-NF as having moisture content of between 4.5 wt % and 5.5 wt %. As used herein, the term “moisture content” refers to the total moisture content of a composition, including both free and bound water. Moisture contents reported here are determined by the Karl-Fischer (KF) method, but may also be determined by other suitable methods known in the art.
During the weighing of the ingredients for the binder solution and during the set up for granulation, an approximately 100 g sample representing each raw material is taken and placed into an appropriately labeled container. An approximately 0.3 gram sample is dispersed in methanol and test using a Karl Fischer moisture analyzer with HYDRANAL Composite 5 titrant using a 60 sec extraction time. Percent moisture was reported.
For each Qualification lot, at the beginning and middle of each shift samples were pulled using a sample thief from three locations within the tub after granulation but before drying. These samples were tested for moisture as described above.
Moisture content was also tested using the same procedure after the second drying step.

## OC[C@@H](O)[C@@H](O[C@@H]1O[C@H](CO)[C@H](O)[C@H](O)[C@H]1O)[C@H](O)[C@@H](O)CO [Jet Milled B]
[1]
  Particle Size Distribution (% Retained) 12: 0.0%
  Particle Size Distribution (% Retained) 20: 0.0%
  Particle Size Distribution (% Retained) 40: 1.9%
  Particle Size Distribution (% Retained) 60: 14.4%
  Particle Size Distribution (% Retained) 80: 17.2%
  Particle Size Distribution (% Retained) 100: 10.7%
  Particle Size Distribution (% Retained) 200: 36.3%
  Particle Size Distribution (% Retained) Pan: 19.5%
[2]
  Bulk Density: 0.670 g/mL
[3]
  PS d10: 5.3 μ
  PS d50: 60.0 μ
  PS d90: 316.2 μ
  d50 (mean particle size by volume distribution): 60 microns
[4]
  Tapped Density: 0.933 g/mL

## O.OC[C@@H](O)[C@@H](O[C@@H]1O[C@H](CO)[C@H](O)[C@H](O)[C@H]1O)[C@H](O)[C@@H](O)CO [Raw Lactitol B]
[5]
  Moisture NMT 3.0%: 1.28%
[1]
  Particle Size Distribution (% Retained) 12: 0.0%
  Particle Size Distribution (% Retained) 20: 0.3%
  Particle Size Distribution (% Retained) 40: 64.4%
  Particle Size Distribution (% Retained) 60: 29.9%
  Particle Size Distribution (% Retained) 80: 3.6%
  Particle Size Distribution (% Retained) 100: 0.7%
  Particle Size Distribution (% Retained) 200: 0.8%
  Particle Size Distribution (% Retained) Pan: 0.3%
[2]
  Bulk Density: 0.677 g/mL
[3]
  PS d10: 94.2 μ
  PS d50: 365.3 μ
  PS d90: 720.3 μ
[4]
  Tapped Density: 0.754 g/mL

## OC[C@@H](O)[C@@H](O[C@H]1O[C@H](CO)[C@H](O)[C@H](O)[C@H]1O)[C@H](O)[C@@H](O)CO [Raw Lactitol, 4-O-α-D-Galactopyranosyl-D-glucitol]
[5]
  Moisture NMT 3.0%: 0.61%
[1]
  Particle Size Distribution (% Retained) 12: 0.0%
  Particle Size Distribution (% Retained) 20: 10.0%
  Particle Size Distribution (% Retained) 40: 57.0%
  Particle Size Distribution (% Retained) 60: 26.3%
  Particle Size Distribution (% Retained) 80: 4.0%
  Particle Size Distribution (% Retained) 100: 0.9%
  Particle Size Distribution (% Retained) 200: 1.3%
  Particle Size Distribution (% Retained) Pan: 0.5%
[2]
  Bulk Density: 0.798 g/mL
[6]
  Flow Viscosity: ~10 CPS (×1000)
  viscosity (flowability): approximately 9,776 cps
[7]
  KF moisture: 4.93%
[3]
  PS d10: 112.4 μ
  PS d50: 426.1 μ
  PS d90: 922.8 μ
  Particle Size Span: 1.9
  d50 (mean particle size by volume distribution): 426 microns
[3]; round bar impeller, 1500 rpm
  d50: 235 microns
[3]; round bar impeller, 1800 rpm
  d50: 196 microns
[3]; square bar impeller, 4200 rpm
  d50: approximately 115 microns
[4]
  Tapped Density: 0.925 g/mL
[4]; listed as Raw Lactitol A
  Tapped Density: 0.925 g/mL
[4]; listed as lactitol monohydrate
  Tapped Density: 0.93 g/mL

## OC[C@@H](O)[C@@H](O[C@@H]1O[C@H](CO)[C@H](O)[C@H](O)[C@H]1O)[C@H](O)[C@@H](O)CO [milled lactitol]
[7]
  KF moisture: 5.05% and 4.99%

— US20200170291A1, “PROCESSES FOR PRODUCING LACTITOL GRANULATES AND GRANULATES PRODUCED THEREBY” (PARTICLE DYNAMICS INTERNATIONAL, LLC, priority 2017, published 2020)
